# Test results published in US8377945B2, “Small molecule inhibitors of spleen tyrosine kinase (SYK)” (Rigel Pharmaceuticals Inc., priority 2009, dated 2013).
# Target: T1, Syk kinase (Homo sapiens, UniProt P43405)
# T1 construct: purchased Millipore 14-314
# Assay: ELISA-based Syk kinase assay (phosphorylation of HS1 peptide substrate by isolated Syk kinase)
# Format: biochemical
# Settings: IC50 of Syk kinase inhibition; 2 μM ATP, 2 μM peptide substrate
# Method: Compounds were tested for the ability to inhibit Syk kinase catalyzed phosphorylation of a peptide substrate in an assay with isolated Syk kinase.
# An assay was carried out in a Costar white 96 well plate (Fisher Scientific, Cat No. 07-200-591) coated overnight with 0.01 mg/ml Neutravidin (Pierce, 100 μl/well) at 4° C. Neutravidin pre-coated 96 well plates were blocked with 2% BSA in PBST buffer for at least 1 hour before starting the assay at room temperature. Serially diluted compound stock solution containing a subject compound was prepared separately in DMSO solution starting from 300 μM and 2 μl of this diluted compound (3% DMSO final concentration) was added directly to neutravidin coated assay plate containing 55.5 μl/well of kinase reaction buffer composed of 20 mM HEPES, pH 7.4, 5 mM MgCl2, 2 mM MnCl2, 1 mM DTT, 0.01% Tween 20 pre-mixed with ATP and kinase substrate (HS1 peptide). Reaction was initiated by adding of 2.5 μl/well Syk kinase (Millipore, Cat No. 14-314) resulting in a final reaction volume of 60 μl and then the reaction was allowed to continue for 30 minutes at room temperature. Final enzyme reaction conditions were 20 mM HEPES, pH 7.4, 5 mM MgCl2, 2 mM MnCl2, 1 mM DTT, 0.01% Tween 20, 0.25 ng Syk, 2 μM ATP, 2 μM peptide substrate (Biotin-EQEDEPEGDYEEVLE-CONH2, SynPep Corporation). After completing the reaction, assay plate was washed three times with PBST and incubated for 1 hour at room temperature with 100 μl/well of phosphopeptide detection antibody solution prepared by mixing 1-1000 diluted mouse anti-pTyr monoclonal antibody (Cell Signal Technology, Cat No. 9411) and 1-1000 diluted goat HRP-conjugated anti-mouse IgG (Jackson Immunoresearch, Cat. No. 115-035-003). Before developing the plate with supersignal ELISA pico chemiluminescent substrate (Pierce), plate was washed three times again with PBST and were read on a SpectraMax M5 microplate reader (Moleculear Devices).
row,Structure (SMILES),IC50 [µM]
1,N#Cc1cccc(Nc2c(-c3ccc4c(c3)NC(=O)CO4)[nH]c3c(C#N)cnn23)c1 [Compound 9],3 to 25
2,COc1cc(-c2[nH]c3c(C#N)cnn3c2NC(C)(C)CC(C)(C)C)cc(OC)c1OC [Compound 11],> 25
3,COc1cc(-c2[nH]c3c(C#N)cnn3c2N)cc(OC)c1OC [Compound 17],3 to 25
4,COc1cc(-c2[nH]c3c(C#N)cnn3c2NC(=O)c2ccccc2)cc(OC)c1OC [Compound 19],3 to 25
5,COc1cccc(C(=O)Nc2c(-c3cc(OC)c(OC)c(OC)c3)[nH]c3c(C#N)cnn23)c1 [Compound 21],> 25
6,N#Cc1cnn2c(Nc3ccc(N4CCOCC4)cc3)c(-c3ccc4cc[nH]c4c3)[nH]c12 [Compound 27],0.51 to 2.99
7,CC(=O)Nc1cccc(Nc2c(-c3ccc4c(c3)NC(=O)CO4)[nH]c3c(C#N)cnn23)c1 [Compound 31],0.51 to 2.99
8,CC(=O)Nc1ccc(-c2[nH]c3c(C#N)cnn3c2Nc2cccc(NC(C)=O)c2)cc1 [Compound 34],3 to 25
9,COc1cccc(CNc2c(-c3ccc4c(c3)NC(=O)CO4)[nH]c3c(C#N)cnn23)c1 [Compound 35],3 to 25
10,COc1cc(-c2[nH]c3c(C#N)cnn3c2NC(=O)c2nnc(-c3ccccc3)o2)cc(OC)c1OC [Compound 39],3 to 25
11,COc1ccc(CCNc2c(-c3ccc4c(c3)NC(=O)CO4)[nH]c3c(C#N)cnn23)cc1OC [Compound 40],3 to 25
12,COc1cccc(CNc2c(-c3cc(OC)c(OC)c(OC)c3)[nH]c3c(C#N)cnn23)c1 [Compound 46],3 to 25
13,COc1cc(-c2[nH]c3c(C#N)cnn3c2NC(=O)CBr)cc(OC)c1OC [Compound 53],> 25
14,COc1cc(-c2[nH]c3c(C#N)cnn3c2NC(=O)COc2ccccc2)cc(OC)c1OC [Compound 54],> 25
15,N#Cc1cnn2c(Nc3ccc4c(c3)OCCO4)c(-c3ccc4cc[nH]c4c3)[nH]c12 [Compound 60],3 to 25
16,COc1ccc2c(-c3[nH]c4c(C#N)cnn4c3Nc3ccc(NC(C)=O)cc3)c[nH]c2c1 [Compound 62],3 to 25
17,CC(=O)Nc1ccc(Nc2c(-c3ccc4c(c3)OCCO4)[nH]c3c(C#N)cnn23)cc1 [Compound 63],3 to 25
18,COc1cc(-c2[nH]c3c(C#N)cnn3c2Nc2ccc(CNC(=O)OC(C)(C)C)cc2)cc(OC)c1OC [Compound 65],0.51 to 2.99

# Further lines, results first:
row,IC50 [µM],Structure (SMILES)
1,3 to 25,COc1cc(-c2[nH]c3c(C#N)cnn3c2NC(=O)c2ccc(C(F)(F)F)c(F)c2)cc(OC)c1OC [Compound 18]
2,3 to 25,COc1cc(-c2[nH]c3c(C#N)cnn3c2NC(=O)c2ccc(F)cc2)cc(OC)c1OC [Compound 20]
3,0.51 to 2.99,COc1cc(-c2[nH]c3c(C#N)cnn3c2Nc2ccc(Cl)c(Cl)c2)cc(OC)c1OC [Compound 22]
4,3 to 25,COc1cc(Nc2c(-c3ccc4cc[nH]c4c3)[nH]c3c(C#N)cnn23)cc(OC)c1OC [Compound 26]
5,3 to 25,COc1cc(Nc2c(-c3cc(OC)c(OC)c(OC)c3)[nH]c3c(C#N)cnn23)cc(OC)c1OC [Compound 29]
6,3 to 25,COc1ccc(Nc2c(-c3ccc(F)cc3F)[nH]c3c(C#N)cnn23)cc1OC [Compound 36]
7,0.51 to 2.99,COc1ccc(Nc2c(-c3ccc(F)c(F)c3)[nH]c3c(C#N)cnn23)cc1OC [Compound 37]
8,> 25,COc1ccc(CCNc2c(-c3cc(OC)c(OC)c(OC)c3)[nH]c3c(C#N)cnn23)cc1OC [Compound 41]
9,> 25,COc1ccc(CC(=O)Nc2c(-c3cc(OC)c(OC)c(OC)c3)[nH]c3c(C#N)cnn23)cc1OC [Compound 42]
10,3 to 25,COc1ccc(Nc2c(Cc3ccccc3)[nH]c3c(C#N)cnn23)cc1OC [Compound 55]
11,3 to 25,COc1ccc(Nc2c(-c3cc(F)c(F)c(F)c3)[nH]c3c(C#N)cnn23)cc1OC [Compound 57]
12,0.51 to 2.99,COc1ccc(Nc2c(-c3cc(Cl)c(OC)c(OC)c3)[nH]c3c(C#N)cnn23)cc1OC [Compound 58]
13,0.51 to 2.99,COc1cc(-c2[nH]c3c(C#N)cnn3c2Nc2ccc(OC)c(OC)c2)ccc1F [Compound 59]
